Measured values: paper PMC7756392, “Syntheses of Thailandepsin B Pseudo‐Natural Products: Access to New Highly Potent HDAC Inhibitors via Late‐Stage Modification” (Chemistry (Weinheim an Der Bergstrasse, Germany), 2020)

Legend:
acetylated α-tubulin = assay: Western blot, acetylated α-tubulin in HL60 cells; type: cell-based; conditions: for ac-tubulin: HL60 cells, 4 h
Procedure: (§1) LABTECH POLARstar OPTIMA plate reader (BMG Labtechnologies, Germany).
(§2) Western Blot: 2.5 x 10^5 HL60 cells were seeded in sterile 12-well plates and incubated with different concentrations of compound or DMSO for 4 h. Cells were washed with cold PBS, lysed with 90 µL SDS sample buffer (Cell Signaling, 62.5 mM Tris-HCl (pH 6.8 at 25°C), 2% w/v SDS, 10% v/v glycerol, 50 mM dithiothreitol, 0.01% bromophenol blue), shortly sonicated and heated to 95°C for 5 min. Cell extracts were used directly for SDS-PAGE or kept frozen at -20 […]
(§3) For the SDS-PAGE, 7 µL cell lysate were loaded on a 12.5% gel and the gel was run at 150V for approximately 1 h, followed by the transfer to a nitrocellulose membrane. The membrane was blocked with 5% milk in TBS-T 0.1% for 1 h at room temperature and washed (3 x 5 min) with TBS-T before adding the antibodies. Western blot analysis was performed with the following primary antibodies: anti-acetylated α-tubulin (Sigma-Aldrich, 1:1000), anti-acetyl-histone 3 (Millipore, 1:2000) and anti-GAPDH (Sigma-Aldrich, 1:5000) and secondary antibodies: anti-mouse-IgG-HRP (Sigma-Aldrich, 1:10000) and anti-rabbit IgG-HRP (Sigma- […]
(§4) Aldrich, 1:5000). The antibodies were all diluted in 3% milk in TBS-T 0.1%. Detection was performed via enhanced chemiluminescence (ECL Prime) using a FUSION-SL (PEQLAB) and the FUSION-CAPT software.
(§5) Figure 4: Western blot of acetyl-α-tubulin, acetyl-H3 and GAPDH after treatment of HL60 cells with different concentrations of 33 or DMSO for 4 h. GAPDH was used as loading control, DMSO as negative control. […]

acetylated histone 3 = assay: Western blot, acetyl-histone 3 in HL60 cells; type: cell-based
Procedure: as §1, §2, §3, §4, §5

CCCC[C@H]1NC(=O)C[C@@H](/C=C/CCSC(C)=O)OC(=O)C[C@H](O)[C@@H]([C@@H](C)CC)NC(=O)[C@@H](C)NC1=O [compound 33]
ac-tubulin (acetylated α-tubulin; 0.0001 µM): 1.1%
ac-tubulin (acetylated α-tubulin; 0.01 µM): 1.1%
ac-tubulin (acetylated α-tubulin; 0.1 µM): 1.3%
ac-tubulin (acetylated α-tubulin; 1 µM): 1.4%
levels of acetylated α-tubulin with increasing inhibitor concentration (in words) (acetylated α-tubulin; western blot): Constant levels
isotype selectivity for class I HDACs in cells (western blot) (acetylated histone 3; HL60 cells, 4 h): selective inhibition of class I HDACs
ac-histone 3 (acetylated histone 3; HL60 cells, 4 h, 0.0001 µM): 1.1%
ac-histone 3 (acetylated histone 3; HL60 cells, 4 h, 0.001 µM): 0.9%
ac-histone 3 (acetylated histone 3; HL60 cells, 4 h, 0.01 µM): 1.8%
ac-histone 3 (acetylated histone 3; HL60 cells, 4 h, 0.1 µM): 4.4%
levels of acetylated histone 3 with increasing inhibitor concentration (in words) (acetylated histone 3; western blot): increasing levels
